The results in this text go back to US10501748B2, “Methods and compositions for integration of an exogenous sequence within the genome of plants” (Dow AgroSciences LLC, priority 2013, dated 2019).

For experiment [1], the system named is somatic embryogenic callus of cv. Bobwhite MPB26RH. The experiment in a line: basal tolerance to IMAZAMOX at the plant regeneration stage. Type of experiment: cell-based, Triticum aestivum. The following applies: 200 nM, 2 weeks, compared to untreated samples. Here is the method: The basal tolerance of the donor wheat line cv. Bobwhite MPB26RH to IMAZAMOX® at the plant regeneration stage was determined as follows: Scutella of immature zygotic embryos from the donor wheat line were isolated as described previously and placed in 10 cm PETRI™ dishes containing CIM medium. Somatic embryogenic callus was allowed to form by incubating at 24° C. in the dark for 4 weeks. The SEC was transferred to 10 cm PETRI™ dishes containing DRM medium supplemented with 0, 100, 200, 300, 400, 500 and 1000 nM IMAZAMOX® respectively. Twenty CIM were placed in each PETRI™ dish. A total of 60 CIM were tested for basal tolerance response at each IMAZAMOX® concentration. After incubation for 2 weeks at 24° C. under a 16/8 (light/dark) hour photoperiod in a growth room, the regeneration response was recorded.

Experiment [2] concerns scutella of cv. Bobwhite MPB26RH and cv. Clearfield Janz (N653/N653). The experiment in a line: basal tolerance/resistance to IMAZAMOX at the callus induction stage. Type of experiment: cell-based, Triticum aestivum. The method, then: The basal tolerance of the donor wheat line cv. Bobwhite MPB26RH and basal resistance of cv. Clearfield Janz (N653/N653) genotype to IMAZAMOX® at the callus induction stage was determined as follows: Scutella of immature zygotic embryos from each wheat line were isolated as described previously and placed in 10 cm PETRI™ dishes containing CIM medium supplemented with 0, 50, 100, 200, 300, 400 and 500 nM IMAZAMOX® respectively. Twenty scutella were placed in each PETRI™ dish. A total of 60 scutella from each of the donor wheat line cv. Bobwhite MPB26RH and cv. Clearfield Janz genotype were tested for basal tolerance and basal resistance response, respectively, at each IMAZAMOX® concentration. After incubation at 24° C. in the dark for 4 weeks, the amount of somatic embryogenic callus formation (SEC) at each IMAZAMOX® concentration was recorded. […] Bobwhite MPB26RH was reduced by about 70% at 100 nM IMAZAMOX®, compared to untreated samples. Callus formation for the cv. Clearfield Janz genotype was unaffected, relative to the untreated control, at any IMAZAMOX® concentrations tested.

In experiment [3] the test system is cv. Clearfield Janz (S653/S653) and (N653/N653) plants. The experiment in a line: basal tolerance/resistance to IMAZAMOX at the plant rooting stage, modified approach. The format is in vivo, Triticum aestivum. The conditions noted are these: 2 weeks. Here is the method: The basal tolerance of the cv. Clearfield Janz (S653/S653) genotype and basal resistance of the cv. Clearfield Janz (N653/N653) genotype to IMAZAMOX® at the plant rooting stage was determined using a modified approach, as cv. […] Seed for each cv. Clearfield Janz genotype was germinated using the aseptic approach described above for producing wheat mesophyll protoplasts. The germinated seedlings were multiplied in vitro by sub-culturing on multiplication medium. Following multiplication, plants for each genotype were transferred to 10 cm PETRI™ dishes containing plant rooting medium (½ MS, 0.5 mg/L NAA, 0.8% agar) supplemented with 0, 50, 100, 200 and 250 nM IMAZAMOX®, respectively. Three plants were placed in each PETRI™ dish. A total of 6 plants per genotype were tested for basal response at each IMAZAMOX® concentration. After incubation for 2 weeks at 24° C. under a 16/8 (light/dark) hour photoperiod in a growth room, the root formation response was recorded.
Clearfield Janz (N653/N653) genotype was restricted, compared to untreated samples, at 250 nM IMAZAMOX®. […] Clearfield Janz (S653/S653) genotype at all concentrations of IMAZAMOX® tested, compared to untreated samples.

`COCc1cnc(C2=NC(C)(C(C)C)C(=O)N2)c(C(=O)O)c1` (centres unmarked) [IMAZAMOX]: the “reduction of plant regeneration” value in experiment [1] is given as “about 80%”. Besides, the “reduction of SEC formation” value in experiment [2] (cv. Bobwhite MPB26RH, 100 nM, 4 weeks, compared to untreated samples) was “about 70%”. Further, in experiment [2] (cv. Clearfield Janz (N653/N653), any concentration tested (50-500 nM)), the “callus formation relative to untreated control” value was “unaffected”. For the same compound, the “root formation compared to untreated samples” value is recorded as “restricted” in experiment [3] (cv. Clearfield Janz (N653/N653), 250 nM) and “severely restricted” in experiment [3] (cv. Clearfield Janz (S653/S653), all concentrations tested (50-250 nM)).
